Assay results as given in ChEMBL document CHEMBL1201862, “PubChem BioAssay data set” (2004).
The source made the active and inactive calls.

Legend:
Vero = experiment: mammalian cell viability reduction – secondary assay, cytotoxicity control for West Nile virus antiviral project, dose response (AID 1650); type: functional; conditions: Chlorocebus sabaeus
[1] = target: T1, Methionyl-tRNA synthetase, putative (Trypanosoma brucei brucei, UniProt Q38C91); type: functional, Trypanosoma brucei brucei strain 927/4 GUTat10.1
T1 sequence (Q38C91 whole entry): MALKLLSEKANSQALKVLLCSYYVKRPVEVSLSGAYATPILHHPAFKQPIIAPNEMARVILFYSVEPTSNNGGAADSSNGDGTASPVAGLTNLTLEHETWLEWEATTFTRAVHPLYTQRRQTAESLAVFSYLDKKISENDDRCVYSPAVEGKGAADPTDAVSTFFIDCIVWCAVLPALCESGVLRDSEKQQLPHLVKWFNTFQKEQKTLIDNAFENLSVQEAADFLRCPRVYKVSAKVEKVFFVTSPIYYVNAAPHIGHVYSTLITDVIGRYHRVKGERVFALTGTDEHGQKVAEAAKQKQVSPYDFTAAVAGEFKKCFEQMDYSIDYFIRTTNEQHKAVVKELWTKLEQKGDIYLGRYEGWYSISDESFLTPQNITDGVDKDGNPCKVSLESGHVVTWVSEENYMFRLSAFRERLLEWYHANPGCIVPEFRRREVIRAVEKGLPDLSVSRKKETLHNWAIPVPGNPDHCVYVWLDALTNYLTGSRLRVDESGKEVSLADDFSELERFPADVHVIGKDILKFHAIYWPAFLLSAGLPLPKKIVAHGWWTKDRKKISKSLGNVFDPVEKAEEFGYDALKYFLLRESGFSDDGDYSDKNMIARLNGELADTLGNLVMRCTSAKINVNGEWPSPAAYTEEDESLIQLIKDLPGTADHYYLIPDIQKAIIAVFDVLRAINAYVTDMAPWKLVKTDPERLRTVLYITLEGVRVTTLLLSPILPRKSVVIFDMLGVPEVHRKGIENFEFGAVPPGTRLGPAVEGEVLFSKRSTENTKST

[2] = target: T1, Methionyl-tRNA synthetase, putative; type: functional, Trypanosoma brucei brucei strain 927/4 GUTat10.1; remark: listed apart in the source
[3] = Counterscreen for inhibitors of Trypanosoma brucei methionyl tRNA synthetase (MetRS): Luminescence-based cell-based high throughput dose response assay to identify compounds that are cytotoxic to Jurkat human T lymphocyte cells.; type: functional
[4] = target: FAD-linked sulfhydryl oxidase ALR (Homo sapiens, UniProt P55789); experiment: ALR-catalysed DTT oxidation blockers – biochemical, H2O2 detection, luminescence, cherry-pick, dose response (AID 493248)
FAD-linked sulfhydryl oxidase ALR, sequence (P55789 whole entry): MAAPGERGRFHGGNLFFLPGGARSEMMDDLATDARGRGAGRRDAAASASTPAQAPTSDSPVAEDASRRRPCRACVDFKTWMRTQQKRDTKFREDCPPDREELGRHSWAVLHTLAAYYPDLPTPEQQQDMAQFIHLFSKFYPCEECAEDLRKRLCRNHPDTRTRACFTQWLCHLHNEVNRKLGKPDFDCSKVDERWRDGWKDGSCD

[5] = target: Beta-2 adrenergic receptor (Homo sapiens, UniProt P07550); experiment: ADRB2 activation measured by internalization – cell-based, FAP fluorogen, flow cytometry, cherry pick 1, dose response (AID 588763); type: functional
Beta-2 adrenergic receptor, sequence (P07550 whole entry): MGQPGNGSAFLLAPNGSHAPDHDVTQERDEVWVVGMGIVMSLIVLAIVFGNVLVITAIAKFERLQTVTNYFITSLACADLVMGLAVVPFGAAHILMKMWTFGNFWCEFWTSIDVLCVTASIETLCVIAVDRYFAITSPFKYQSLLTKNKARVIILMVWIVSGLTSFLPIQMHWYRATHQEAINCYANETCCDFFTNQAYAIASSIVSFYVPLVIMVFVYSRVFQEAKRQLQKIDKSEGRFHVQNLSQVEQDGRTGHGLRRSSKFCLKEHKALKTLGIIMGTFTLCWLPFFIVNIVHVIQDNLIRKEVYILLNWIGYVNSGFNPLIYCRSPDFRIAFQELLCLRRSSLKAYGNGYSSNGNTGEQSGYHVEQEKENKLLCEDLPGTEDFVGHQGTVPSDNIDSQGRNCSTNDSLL

BJ [6] = experiment: growth inhibition of engineered Ras-driven BJ cells – cell-based, alamar blue fluorescence, cherrypicked samples, dose response (AID 2631); type: functional; conditions: Homo sapiens;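 further: confirmatory dose-response assay in RAS-dependent BJ fibroblasts engineered with TERT, LT and ST, with cytotoxicity read by fluorescence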
[7] = DRD fibroblast viability loss – cell-based, non-viral oncogenic, luminescence, dose response (AID 1934); type: functional; conditions: Homo sapiens
BJ [8] = experiment: BJ-TERT-LT-ST fibroblast viability loss – cell-based, RAS-independent, luminescence, dose response (AID 1935); type: functional; conditions: Homo sapiens;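 further: BJ fibroblasts immortalized with TERT plus LT and ST oncogenes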
BJ [9] = experiment: cells; type: functional, cell-based; conditions: Homo sapiens
BJ [10] = experiment: BJ-TERT fibroblast viability loss – cell-based, RAS-independent, luminescence, dose response (AID 1933); type: functional; conditions: Homo sapiens
cells [11] = type: functional, cell-based
cells [12] = type: functional, cell-based; remark: listed apart in the source
[13] = blockers of bursicon-stimulated LGR2 cAMP reporter – cell-based, HEK293, CRE-luciferase reporter, cherry pick, set 2, dose response (AID 743343); type: functional;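 further: transfected cells were stimulated with diluted bursicon conditioned medium after compound addition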
[14] = viability of uninfected HEp-2 cells – cell-based, HTS, cytotoxicity control for RSV inhibitor project, dose response (AID 2410); type: functional; conditions: human respiratory syncytial virus
[15] = Trypanosoma cruzi growth suppression in host cells – NIH3T3 host cells, beta-gal luminescence, confirmation (AID 2044); type: functional, cell-based;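 further: intracellular parasites grown in NIH/3T3 mouse fibroblasts as host cells; luminescent beta-galactosidase reporter signal from transgenic T. cruzi replicating inside host cells; inhibitors lower the luminescence signal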
[16] = A549 cell cytotoxicity, dose response, cytotoxicity control, plate reader, cherry-pick, antagonist series (AID 743412); type: functional, cell-based
[17] = target: T2, Microphthalmia-associated transcription factor (Homo sapiens, UniProt O75030); experiment: reducers of TRPM1 reporter luminescence, concentration series – cell-based, SK-MEL-5, cherry-picked, set 3, MITF inhibitor project, dose response (AID 493073); type: functional;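 further: SK-MEL-5 melanoma cells with luciferase driven by the MITF target TRPM1 promoter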
T2 sequence (O75030 whole entry): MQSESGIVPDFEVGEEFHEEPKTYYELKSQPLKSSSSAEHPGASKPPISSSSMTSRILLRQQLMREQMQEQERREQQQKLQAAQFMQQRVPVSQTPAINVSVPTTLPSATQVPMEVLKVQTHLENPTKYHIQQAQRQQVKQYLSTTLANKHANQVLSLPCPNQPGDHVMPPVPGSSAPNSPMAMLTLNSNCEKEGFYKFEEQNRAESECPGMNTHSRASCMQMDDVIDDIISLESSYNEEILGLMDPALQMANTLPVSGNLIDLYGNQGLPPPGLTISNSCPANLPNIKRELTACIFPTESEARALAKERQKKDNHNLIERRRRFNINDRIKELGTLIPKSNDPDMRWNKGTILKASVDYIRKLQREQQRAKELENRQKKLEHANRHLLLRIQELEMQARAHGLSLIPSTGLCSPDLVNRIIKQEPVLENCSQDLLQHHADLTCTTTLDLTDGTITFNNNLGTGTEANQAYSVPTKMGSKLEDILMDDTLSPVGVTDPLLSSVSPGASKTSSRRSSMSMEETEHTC

[18] = blockade of melanocortin 4 receptor signaling – cell-based, plate reader, cherry pick, counter-screen for LGR2 antagonist project, dose response (AID 743444); type: functional;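 further: transfected HEK 293 cells stimulated with alpha-MSH peptide; potency of inhibitors of the alpha-MSH evoked signal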
[19] = toxicity toward HepG2 liver cells – cell-based, plate reader, cherry-pick, antagonist series, cytotoxicity control, dose response (AID 743416); type: functional
[20] = viability loss in HEK293 cells – cell-based, plate reader, cherry-picked samples, cytotoxicity control, dose response (AID 743446); type: functional

**Q.** For O=C(CCN1C(=O)/C(=C/c2ccccc2Cl)SC1=S)N1CCOCC1, which CC50 (Vero) is on record?
**A.** The CC50 was 67.3 µM (active).

**Q.** For Cc1ccc(NC(=O)CN2C(=O)CN=C(c3ccccc3)c3cc(Cl)ccc32)cc1, which IC50 [1] is on record?
**A.** The IC50 was 2.82 µM (active).

**Q.** What about the IC50 [2] of the same molecule?
**A.** The IC50 was 6.78 µM (active).

**Q.** And the IC50 [3]?
**A.** Its IC50 is 6.39 µM (active).

**Q.** What does the source list for O=C1CCCN1CCCNc1ncnc2c1[nH]c1ccc(Cl)cc12?
**A.** IC50 [1]: 4.36 µM (active); IC50 [2]: 8.28 µM (active); AC50 [4]: 943 nM (active); IC50 [3]: 83.3 µM (inactive)

**Q.** With CC1(C)Cc2c(c(-c3ccco3)nc3sc4c(NCC5CCCO5)ncnc4c23)CO1 (stereo unspecified) as the molecule, how does the EC50 [5] read?
**A.** Its EC50 is 91.9 nM (active).

**Q.** Which EC50 (BJ [6]) does the source give for CCc1ccc(NC(=O)[C@H](Cc2c[nH]c3ccccc23)NC(=O)[C@@H]2Cc3ccccc3CN2)cc1 here?
**A.** The EC50 was > 133 µM (inactive).

**Q.** And the EC50 [7]?
**A.** The EC50 was > 150 µM (inconclusive).

**Q.** What about the EC50 (BJ [8]) of the same molecule?
**A.** Its EC50 is > 150 µM (not active).

**Q.** And the EC50 (BJ [9])?
**A.** The EC50 was 10.8 µM (active).

**Q.** What about the EC50 (BJ [10]) of the same molecule?
**A.** Its EC50 is > 150 µM (not active).

**Q.** With O=C(Cn1cnc([N+](=O)[O-])c1)NCCc1ccccc1 as the molecule, how does the EC50 (cells [11]) read?
**A.** Its EC50 is > 29.9 µM (inactive).

**Q.** What about the IC50 (cells [12]) of the same molecule?
**A.** The IC50 was > 29.9 µM (inactive).

**Q.** Which results are given for Clc1cccc(N/N=C(\Cc2nc3ccccc3[nH]2)c2ccccc2)c1?
**A.** IC50 [1]: 3.09 µM (active); IC50 [2]: 4.59 µM (active); IC50 [3]: 62.2 µM (inactive)

**Q.** Which AC50 [13] does the source give for O=C(COC(=O)c1ccccc1C(=O)c1ccc(Cl)c([N+](=O)[O-])c1)NC1CC1 here?
**A.** Its AC50 is 11.8 µM (active).

**Q.** And the CC50 [14]?
**A.** Its CC50 is 10.2 µM (active).

**Q.** And the EC50 [15]?
**A.** The EC50 was 3.79 µM (active).

**Q.** What about the EC50 [5] of the same molecule?
**A.** Its EC50 is 13300 nM (inactive).

**Q.** And the EC50 [7]?
**A.** Its EC50 is 10.1 µM (inconclusive).

**Q.** And the EC50 (BJ [8])?
**A.** Its EC50 is 92.6 µM (inconclusive).

**Q.** And the EC50 (BJ [9])?
**A.** Its EC50 is 6.82 µM (inconclusive).

**Q.** And the AC50 [16]?
**A.** Its AC50 is 7.05 µM (active).

**Q.** And the EC50 (BJ [10])?
**A.** Its EC50 is 5.11 µM (active).

**Q.** What about the AC50 [17] of the same molecule?
**A.** Its AC50 is 8.92 µM (active).

**Q.** And the AC50 [18]?
**A.** Its AC50 is 15.4 µM (active).

**Q.** For CCC(=O)N1CCc2cc(Br)cc(S(=O)(=O)N(C)c3ccc(OC)cc3)c21, which EC50 [5] is on record?
**A.** The EC50 was 27.1 nM (active).

**Q.** Which AC50 [13] does the source give for C[C@H]1CN([C@@H](C)CO)C(=O)Cc2cc(NS(=O)(=O)c3ccc(Cl)cc3)ccc2O[C@@H]1CN(C)Cc1ccccc1 here?
**A.** The AC50 was 31.5 µM (active).

**Q.** And the AC50 [19]?
**A.** The AC50 was 16.9 µM (active).

**Q.** What about the AC50 [20] of the same molecule?
**A.** The AC50 was 29.6 µM (active).

**Q.** And the AC50 [16]?
**A.** The AC50 was 13.1 µM (active).

**Q.** What about the AC50 [18] of the same molecule?
**A.** Its AC50 is 38.7 µM (active).
